Experimental data reported in ChEMBL document CHEMBL1149016, “Plant anticancer agents, XLII. Cytotoxic constituents from Wikstroemia elliptica” (1986).
Converted amounts (≈) assume the structure as drawn.

test system: P388; experiment: Cytotoxicity against mouse P388 cells; format: functional; details: read-out: ED50 (the source's name)

`COc1cc(C[C@@H]2CO[C@@H](c3cc(OC)c(O)c(OC)c3)[C@@H]2CO)ccc1O` (racemic) and `COc1cc(C[C@H]2CO[C@H](c3ccc(O)c(OC)c3)[C@H]2CO)ccc1O` (racemic) [LARICIRESINOL] are within 1.5-fold of each other in EC50: 0.33 µg/mL (≈ 0.845 µM) for the first, 0.38 µg/mL (≈ 1.05 µM) for the second.

First: COc1cc([C@H]2OC[C@H]3[C@@H]2CO[C@@H]3c2cc(OC)c(O)c(OC)c2)cc(OC)c1O (racemic) [SYRINGARESINOL]
Second: COc1cc2cc(Oc3ccc4ccc(=O)oc4c3)c(=O)oc2cc1O [DAPHNORETIN]
The EC50 of the first is 6.1-fold lower: 0.56 µg/mL (≈ 1.34 µM) for the first, 3.4 µg/mL (≈ 9.65 µM) for the second.

`O=c1ccc2ccc(O)cc2o1` [UMBELLIFERONE] was tested, and the EC50 was 3.1 µg/mL (≈ 19.1 µM).
